In experiment [1] the test system is aSynL:total ratio. Kind of experiment: In vivo I-Dopa treatment of DAT-Cre/Dicer mice, aSynL:total ratio in brain tissue by RT-qPCR. More on the design: species or system mouse. How it is done:
(§1) 2-month old DAT-Cre/Dicer^flox/flox and DAT-Cre/Dicer^flox/+24 or forty-weeks old male PAC-Tg (SNCA)+/−;Snca+/− (a gift from Dr. Robert L. Nussbaum, University of California San Francisco, ^25) received 20 mg/kg I-Dopa with 12 mg/kg benserazide (or PBS vehicle only) by intraperitoneal injection daily for 5 days. […] 1 hour after the last dose, mice were anesthetized by inhaled isoflurane and the brains rapidly removed. The prefrontal cortex, striatum and midbrain were dissected out and stored at −80° C.
RT-qPCR analyses were performed as described ^60.

The subject of experiment [2] is human aSyn protein. Kind of experiment: In vivo I-Dopa treatment of aSyn PAC transgenic mice, aSyn protein in brain tissue by ELISA. More on the design: species or system mouse. The note with it: 20 mg/kg i.p. daily for 5 days. How it is done: (§2) Mitochondria were purified using Qproteome Mitochondria Isolation Kit (Qiagen) and membrane fractions were isolated using Subcellular Protein Fractionation Kit (Pierce) following manufacturers' instructions. Human aSyn protein levels were determined using the aSyn Human ELISA kit (Invitrogen). Absorbance was read on a VersaMax ELISA Microplate Reader (Molecular Devices, Inc) at 450 nm. The amount of human aSyn was normalized to total cellular protein as determined with the DC Protein Assay Reagent kit (Bio-Rad). Mitochondrial preparations were validated by Western blot analysis for Tom20 and synaptophysin (see FIG. 12d).
as §1
(In general: ELISA stands for enzyme-linked immunosorbent assay.)

Experiment [3] concerns aSynL:total ratio. Kind of experiment: aSynL:total ratio by RT-qPCR in rat primary cortical cultures. The experiment is classed as cell-based. The note with it: for aSynL:total ratio: rat primary cortical neurons, RT-qPCR, dopamine, picrotoxin, muscimol, NMDA 100 μM, kainic acid 50 μM, vs vehicle; for dopamine-mediated potentiation of the aSynL:total ratio: nomifensine 100 μM with dopamine 100 μM for 24 h. On the procedure:
(§3) Cultures of rodent neurons were prepared as described in ^53. Cells were maintained in vitro for 3-5 days before drug treatments or transfection using Lipofectamine 2000 (Iinvitrogen) following manufacturer's instructions.
RT-qPCR analyses were performed as described ^60. The human aSynL:Total mRNA ratio was quantified in terms of AACt ^60 using primer pair Lh for the human long form (HaSynLfw [[…]] SEQ ID NO: 13, and HaSynLry [[…]]) SEQ ID NO: 14 and primer pair Th for human total (HaSynTfw [[…]] SEQ ID NO: 15 and HaSynTrv [[…]] SEQ ID NO: 16). For analysis of either mouse or rat, primer pairs mrL (RaSynLfw [[…]] SEQ ID NO: 17 and RaSynLrv [[…]] SEQ ID NO: 18) and mrT (RaSynTfw [[…]] SEQ ID NO: 19, RaSynTry [[…]] SEQ ID NO: 20) were used.
(In qPCR the cycle at which signal appears reflects the starting amount.)

Experiment [4] concerns aSynL:total ratio. Kind of experiment: aSynL:total ratio in total RNA of SH-SY5Y cells by RT-qPCR (transcription inhibition). The experiment is classed as cell-based, human. The note with it: actinomycin D 10 μg/mL with dopamine 100 μM, total RNA, 12 or 24 h.
In experiment [5] the test system is human aSyn 3′UTR. The experiment can be described thus: Firefly luciferase-aSyn 3′UTR reporter assay in SH-SY5Y cells. The experiment is classed as cell-based. The note with it: for luciferase expression, Firefly/Renilla ratio, 1.1 kb human aSyn 3′UTR vector: 100 μM for 24 h. On the procedure: The human SH-SY5Y neuroblastoma cell line (ATCC) was cultured following the distributor's instructions. Cells were plated at a density of 4×10^5 cells per well (in 48-well plates) in wells coated with 0.1% gelatin (Specialty Media, Millipore) 24 hours prior to transfection. Transfections were performed with Lipofectamine 2000 reagent (Invitrogen) following the manufacturer's instructions. The human HEK-293T cell line (ATCC) was cultured in DMEM (Invitrogen) supplemented with 10% FBS (Invitrogen). Cells were plated at a density of 8×10^3 cells per well (96-well plates). Mir-34b-3p precursor, specific Anti-miR Mir-34b-3p inhibitor, Anti-miR Negative Control #1, and Pre-miR Negative Control #1 were purchased from Ambion. Cells were co-transfected with luciferase reporter plasmids and a small RNA or inhibitor (as indicated) using siPort NeoFx reagent (Ambion) following manufacturer's protocol. Luciferase and Renilla activities were measured 24 h or 48 h after transfection using Dual-Glo luciferase assay system (Promega).

Experiment [6] deals with aSynL/total ratio. Kind of experiment: aSynL/total ratio in SK-N-MC cells treated with chronic low-dose rotenone (reanalysis of GEO GSE4773). The note with it: one or two weeks vs vehicle. The experiment is classed as cell-based, human.
Experiment [7] deals with aSyn protein. The experiment can be described thus: aSyn protein by ELISA in mitochondrial and membrane fractions of SH-SY5Y cells. The class given is cell-based, human. The note with it: 100 μM for 48 h. How it is done:
as §2

Experiment [8] relates to aSyn protein. Kind of experiment: Total endogenous aSyn protein by ELISA in SH-SY5Y cells. The experiment is classed as cell-based, human. The note with it: 100 μM for 48 h. On the procedure: as §2
Experiment [9] deals with aSynL:total ratio. The experiment can be described thus: In situ hybridization for aSyn CDS and long 3′UTR in primary cortical neuron cultures from aSyn PAC transgenic mice. The experiment is classed as cell-based. The note with it: 100 μM for 24 h, DIV 4 PAC mouse cortical neurons. On the procedure: as §3
In situ hybridization were performed using QuantiGene® ViewRNA ISH Cell Assay (Panomics) following manufacturer's instructions, with QG ViewRNA TYPE 8 Probe Sets (Panomics) designed to target either human aSyn CDS sequences (bases 264-634 from NM_000345.3; Panomics) or to target human aSynL 3′UTR sequences (bases 1180-1760 from NM_000345.3).

The test system of experiment [10] is aSyn protein. Kind of experiment: Colocalization of aSyn and Mitotracker in primary cortical neuron cultures from PAC transgenic mice. The class given is cell-based. The note with it: primary mouse cortical neurons, 100 μM for 24 h. How it is done:
as §3
Immunostainings were done as previously described ^59 with Rabbit anti-aSyn (Santa Cruz, 1:200) or Mouse anti-Synaptophysin (Millipore, 1:100) as primary antibodies, and Alexa 555 goat anti-rabbit IgG or Alexa 633 goat anti-mouse IgG (Invitrogen) secondary antibodies. MitoTracker-Orange (Invitrogen, 1:10000) was added into media for 15-20 min in living cell culture. Collocalization analyses were done in R using EBImage package; using Pearson's correlation coefficient.

Entries after “also recorded” stand apart in the source; their conditions may differ. *1 amine or outer side, *2 acyl side, *3 side chain or, on linkers, in order; H or OH if unused. Where a SMILES comes first, the peptide text is derived from it. Bridges are numbered along the chain shown (N, C = ends). Roman numbers before positions name the chains, in order. [ ]: non-standard residue; d: D form. Actinocin(9to1) = Cc1c2oc3c(C)ccc(C(=O)[*:1])c3nc-2c(C(=O)[*:2])c(N)c1=O; NMeV = CN[C@H](C(=O)O)C(C)C; Sar = CNCC(=O)O

This is an account of results in patent US20140323581A1, “TRANSCRIPTOME WIRING ANALYSIS IN PARKINSON'S DISEASE AND USES THEREOF” (THE TRUSTEES OF COLUMBIA UNIVERSITY IN THE CITY OF NEW YORK, priority 2011, published 2014).

Take `N[C@@H](Cc1ccc(O)c(O)c1)C(=O)O` [I-Dopa]: the “aSynL:total ratio in midbrain tissue” value in [1] (2 month-old control DAT-Cre/Dicer flox/+ mice, 20 mg/kg i.p. daily for 5 days with 12 mg/kg benserazide) was “significantly increased”. The “aSynL:total ratio in midbrain tissue” value in experiment [1] (DAT-Cre/Dicer flox/flox mice deficient in mDNs, 20 mg/kg i.p. daily for 5 days) is reported as “did not alter”. Also, the “aSynL:total ratio in brain regions other than midbrain” value in [1] (such as striatal tissue, 20 mg/kg i.p. daily for 5 days) is “not apparent”. In [2], the “human aSyn protein in midbrain (ELISA, normalized to total protein)” value is listed as “significantly increased” and the “human aSyn protein in other brain regions such as striatum or cortex” value is “not”.

In the case of `CN[C@H](CC(=O)O)C(=O)O` [NMDA], the “aSynL:total ratio” value in experiment [3] is given as “did not appear to impact”.

As for `Cc1c2oc3c(C)ccc(C(=O)N[C@@H]4C(=O)N[C@H](C(C)C)C(=O)N5CCC[C@H]5C(=O)N(C)CC(=O)N(C)[C@@H](C(C)C)C(=O)O[C@@H]4C)c3nc-2c(C(=O)N[C@@H]2C(=O)N[C@H](C(C)C)C(=O)N3CCC[C@H]3C(=O)N(C)CC(=O)N(C)[C@@H](C(C)C)C(=O)O[C@@H]2C)c(N)c1=O` [actinomycin D] (I: T[dV]P[Sar][NMeV] / II: T[dV]P[Sar][NMeV]; ester I:1-I:C, II:1-II:C; linker I:N-II:N via Actinocin(9to1)), the “dopamine-mediated increase in aSynL:total ratio” value in [4] is recorded as “prevented the increase”.

Turning to `C=C(C)[C@H]1CN[C@H](C(=O)O)[C@H]1CC(=O)O` [kainic acid], in experiment [3], the “aSynL:total ratio” value was “did not appear to impact”.

On to `NCc1cc(=O)[nH]o1` [muscimol], for which the “aSynL:total ratio” value in [3] is “alter”. For the same compound, in experiment [5] (SH-SY5Y), the “luciferase expression, Firefly/Renilla ratio, 1.1 kb human aSyn 3′UTR vector” value is listed as “decreased”.

With `CN1CCCC1c1cccnc1` (stereo not drawn) [nicotine], the “expression of an aSynL-3′UTR bearing reporter gene (Firefly/Renilla)” value in experiment [5] (nicotine 100 μM, with or without dopamine 100 μM, 24 h) is given as “decreases”.

As for `CN1Cc2c(N)cccc2C(c2ccccc2)C1` (stereo not drawn) [nomifensine], the “dopamine-mediated potentiation of the aSynL:total ratio” value in [3] is reported as “suppressed sensitivity”; in experiment [3] (listed as Nomifensine), “suppresses”. The “dopamine-increased luciferase accumulation, luciferase-aSyn 3′UTR vector” value in experiment [5] (SH-SY5Y, dopamine 100 μM with nomifensine 100 μM, 24 h) was “suppressed”.

Take `C=C(C)[C@H]1Cc2c(ccc3c2O[C@@H]2COc4cc(OC)c(OC)cc4[C@@H]2C3=O)O1` [rotenone]: the “aSynL/total ratio (Affymetrix probesets 204467_s_at and 211546_x_at)” value is listed as “predictably modify; also recorded: increased” in experiment [6] and “Mitochondrial toxin increases aSynL: total ratio” in experiment [6] (listed as Rotenone).

Turning to picrotoxin, in [3], the “aSynL:total ratio” value was “significantly increased; also recorded: alter”. In experiment [7], the “aSyn content within total cell membrane fraction relative to whole cell lysate (ELISA)” value was “decreased; also recorded: reduction” and the “aSyn protein content in mitochondrial preparations relative to whole cell aSyn content (ELISA)” value is given as “increased proportion; also recorded: preferentially increased”. Further, the “endogenous aSyn protein levels (ELISA, normalized to total protein)” value in experiment [8] is recorded as “significantly increased”. For the same compound, the “aSynL:total ratio (ratio of in situ hybridization signals)” value in experiment [9] is listed as “increase”. The “fraction of aSyn protein that colocalized with mitochondria (Mitotracker)” value in [10] is reported as “significantly increased”. For the same compound, the “luciferase expression, Firefly/Renilla ratio, 1.1 kb human aSyn 3′UTR vector” value in [5] (SH-SY5Y) is “increased”. Besides, the “luciferase expression, Firefly/Renilla ratio, short aSyn 3′UTR vector” value in experiment [5] (SH-SY5Y, 100 μM for 24 hrs) is “do not influence”.
